We go through 30 compounds from patent publication EP2951180B1, “2,6,7,8 SUBSTITUTED PURINES AS HDM2 INHIBITORS” (Merck Sharp & Dohme Corp., priority 2013, dated 2014).

Molecules are shown by their SMILES.

As a reminder, the IC50 is the concentration that gives 50% inhibition. A lower IC50 goes with higher potency.

The first assay deals with T1, HDM2 (Homo sapiens, UniProt Q00987).
T1 construct: Thioredoxin (N); made in house; host or cells: E. coli strain BL21(DE3)Rosetta
T1 sequence (Q00987 17-125): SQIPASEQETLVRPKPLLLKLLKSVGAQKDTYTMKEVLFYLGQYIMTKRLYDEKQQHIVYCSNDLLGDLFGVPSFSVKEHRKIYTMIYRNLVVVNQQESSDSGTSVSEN
Kind of assay: FRET assay (HDM2 inhibition; method not described in this part). Format: binding. The conditions noted are these: Table 1.
Regarding `C[C@@H](Nc1nc(C(=O)O)nc2nc(-c3ccc4c(c3)OCCN4C)n(Cc3ccc(C(F)(F)F)cc3)c12)C1CCC1` [Example 1.125, 6-{[(1R)-1-cyclobutylethyl]amino}-8-(4-methyl-3,4-dihydro-2H-1,4-benzoxazin-7-yl)-7-[4-(trifluoromethyl)benzyl]-7H-purine-2-carboxylic acid], the IC50 was 116 nM.

`CC(C)c1ccc(OC(F)(F)F)c(-c2nc3nc(C(=O)O)nc(N[C@H](C)C4CCC4)c3n2Cc2ccc(C(F)(F)F)c(F)c2)c1` [Example 1.3, (R)-6-((1-cyclobutylethyl)amino)-7-(3-fluoro-4-(trifluoromethyl)benzyl)-8-(5-isopropyl-2-(trifluoromethoxy)phenyl)-7H-purine-2-carboxylic acid] had an IC50 of 15.2 nM.

The compound `CC(C)c1cncc(-c2nc3nc(C(=O)O)nc(N[C@H](C)C4CCC4)c3n2Cc2ccc(C(F)(F)F)cc2)c1` [Example 1.81, 6-{[(1R)-1-cyclobutylethyl]amino}-8-[5-(1-methylethyl)pyridin-3-yl]-7-[4-(trifluoromethyl)benzyl]-7H-purine-2-carboxylic acid] gave an IC50 of 74.4 nM.

Compound `Cc1cccc(-c2nc3nc(C(=O)O)nc(N[C@H](C)C4CCC4)c3n2Cc2ccc(C(F)(F)F)cc2)c1C` [Example 1.126, 6-{[(1R)-1-cyclobutylethyl]amino}-8-(2,3-dimethylphenyl)-7-[4-(trifluoromethyl)benzyl]-7H-purine-2-carboxylic acid] gave an IC50 of 18 nM.

The compound `CC(O)c1ccc(-c2nc3nc(C(=O)O)nc(N[C@H](C)C4CCC4)c3n2Cc2ccc(C(F)(F)F)cc2)cc1` (stereo partly drawn) [Example 1.101, 6-{[(1R)-1-cyclobutylethyl]amino}-8-[4-(1-hydroxyethyl)phenyl]-7-[4-(trifluoromethyl)benzyl]-7H-purine-2-carboxylic acid] came in with an IC50 of 34.2 nM.

For `CCC(C)c1ccnc(-c2nc3nc(C(=O)O)nc(N[C@H](C)C4CCC4)c3n2Cc2ccc(C(F)(F)F)cc2)c1` (single isomer, unassigned) [Example 1.14], the IC50 is 3.65 nM.

For the compound `C[C@@H](Nc1nc(C(=O)O)nc2nc(-c3cccc(C(F)(F)F)n3)n(Cc3ccc(C(F)(F)F)cc3)c12)C1CCC1` [Example 1.122, 6-{[(1R)-1-cyclobutylethyl]amino}-7-[4-(trifluoromethyl)benzyl]-8-[6-(trifluoromethyl)pyridin-2-yl]-7H-purine-2-carboxylic acid], inhibition was half-maximal at 21.2 nM (IC50).

In turn, `CC(C)c1ccnc(-c2nc3nc(C(=O)O)nc(N[C@H](C)C4CCC4)c3n2Cc2ccc(C(F)(F)F)cc2)c1` [Example 1.22] had an IC50 of 4.22 nM.

For `C[C@@H](Nc1nc(C(=O)O)nc2nc(-c3ccc4c(c3)CCO4)n(Cc3ccc(C(F)(F)F)cc3)c12)C1CCC1` [Example 1.121, 6-{[(1R)-1-cyclobutylethyl]amino}-8-(2,3-dihydro-1-benzofuran-5-yl)-7-[4-(trifluoromethyl)benzyl]-7H-purine-2-carboxylic acid], it took 7.81 nM to reach half-maximal inhibition (IC50).

In turn, `COc1c(C)cc(-c2nc3nc(C(=O)O)nc(N[C@H](C)C4CCC4)c3n2Cc2ccc(C(F)(F)F)cc2)cc1C` [Example 1.134, 6-{[(1R)-1-cyclobutylethyl]amino}-8-(4-methoxy-3,5-dimethylphenyl)-7-[4-(trifluoromethyl)benzyl]-7H-purine-2-carboxylic acid] showed an IC50 of 56.2 nM.

For the compound `C[C@@H](Nc1nc(C(=O)O)nc2nc(-c3cc(-c4cccs4)ccn3)n(Cc3ccc(C(F)(F)F)cc3)c12)C1CCC1` [Example 1.57, 6-{[(1R)-1-cyclobutylethyl]amino}-8-(4-thiophen-2-ylpyridin-2-yl)-7-[4-(trifluoromethyl)benzyl]-7H-purine-2-carboxylic acid], inhibition was half-maximal at 5.95 nM (IC50).

The assay is the same for the next values; noted with them: Table 2.
`Cc1cccc(-c2nc3nc(C(=O)O)nc(N[C@H](C)C4CC4)c3n2Cc2ccc(C(F)(F)F)cc2)c1` [Example 2.8, 6-{[(1R)-1-cyclopropylethyl]amino}-8-(3-methylphenyl)-7-[4-(trifluoromethyl)benzyl]-7H-purine-2-carboxylic acid] showed an IC50 of 28.4 nM.

`C[C@@H](Nc1nc(C(=O)O)nc2nc(-c3cccc(OC(F)F)c3)n(Cc3ccc(C(F)(F)F)cc3)c12)C1CCC1` [Example 2.67, 6-{[(1R)-1-cyclobutylethyl]amino}-8-[3-(difluoromethoxy)phenyl]-7-[4-(trifluoromethyl)benzyl]-7H-purine-2-carboxylic acid] yielded an IC50 of 41.7 nM.

`COc1cc(OC)cc(-c2nc3nc(C(=O)O)nc(N[C@H](C)C4CC4)c3n2Cc2ccc(C(F)(F)F)cc2)c1` [Example 2.28, 6-{[(1R)-1-cyclopropylethyl]amino}-8-(3,5-dimethoxyphenyl)-7-[4-(trifluoromethyl)benzyl]-7H-purine-2-carboxylic acid] showed an IC50 of 455 nM.

As to `C[C@@H](Nc1nc(C(=O)O)nc2nc(-c3cccc(C#N)c3)n(Cc3ccc(C(F)(F)F)cc3)c12)C1CCC1` [Example 2.45, 8-(3-cyanophenyl)-6-{[(1R)-1-cyclobutylethyl]amino}-7-[4-(trifluoromethyl)benzyl]-7H-purine-2-carboxylic acid], inhibition was half-maximal at 63 nM (IC50).

Regarding `CCOc1cccc(-c2nc3nc(C(=O)O)nc(N[C@H](C)C4CC4)c3n2Cc2ccc(C(F)(F)F)cc2)c1` [Example 2.15, 6-{[(1R)-1-cyclopropylethyl]amino}-8-(3-ethoxyphenyl)-7-[4-(trifluoromethyl)benzyl]-7H-purine-2-carboxylic acid], the IC50 amounted to 304 nM.

`Cc1cccc(-c2nc3nc(C(=O)O)nc(N[C@H](C)C4CC4)c3n2Cc2ccc(C(F)(F)F)cc2)c1C` [Example 2.59, 6-{[(1R)-1-cyclopropylethyl]amino}-8-(2,3-dimethylphenyl)-7-[4-(trifluoromethyl)benzyl]-7H-purine-2-carboxylic acid] came in with an IC50 of 147 nM.

`C[C@@H](Nc1nc(C(=O)O)nc2nc(C3CC3)n(Cc3ccc(Cl)cc3)c12)C1CC1` [Example 2.42, 7-(4-chlorobenzyl)-8-cyclopropyl-6-{[(1R)-1-cyclopropylethyl]amino}-7H-purine-2-carboxylic acid] registered an IC50 of 265 nM.

As to `COc1ncc(-c2nc3nc(C(=O)O)nc(N[C@H](C)C4CCC4)c3n2Cc2ccc(C(F)(F)F)cc2)cc1Cl` [Example 2.46, 8-(5-chloro-6-methoxypyridin-3-yl)-6-{[(1R)-1-cyclobutylethyl]amino}-7-[4-(trifluoromethyl)benzyl]-7H-purine-2-carboxylic acid], half-maximal inhibition (IC50) required 51 nM.

On to `C[C@@H](Nc1nc(C(=O)O)nc2nc(-c3cccc(F)c3)n(Cc3ccc(C(F)(F)F)cc3)c12)C1CC1` [Example 2.56, 6-{[(1R)-1-cyclopropylethyl]amino}-8-(3-fluorophenyl)-7-[4-(trifluoromethyl)benzyl]-7H-purine-2-carboxylic acid], for which the IC50 came to 261 nM.

Staying with this assay, now noted: Table 4.
With `C=CCCOc1ccc(C)cc1-c1nc2nc(C(=O)O)nc(N[C@H](C)C3CC3)c2n1Cc1ccc(Cl)cc1` [Example 4.3, (R)-8-(2-(but-3-en-1-yloxy)-5-methylphenyl)-7-(4-chlorobenzyl)-6-((1-cyclopropylethyl)amino)-7H-purine-2-carboxylic acid], the IC50 is 104 nM.

Compound `COCCCOc1ccc(C)cc1-c1nc2nc(C(=O)O)nc(N[C@H](C)C3CCC3)c2n1Cc1ccc(Cl)cc1` [Example 4.4, (R)-7-(4-chlorobenzyl)-6-((1-cyclobutylethyl)amino)-8-(2-(3-methoxypropoxy)-5-methylphenyl)-7H-purine-2-carboxylic acid] registered an IC50 of 48.7 nM.

`Cc1ccc(OCCCO)c(-c2nc3nc(C(=O)O)nc(N[C@H](C)C4CCC4)c3n2Cc2ccc(Cl)cc2)c1` [Example 4.6, (R)-7-(4-chlorobenzyl)-6-((1-cyclobutylethyl)amino)-8-(2-(3-hydroxypropoxy)-5-methylphenyl)-7H-purine-2-carboxylic acid] came in with an IC50 of 33.7 nM.

Compound `COCCN(CCCOc1ccc(C)cc1-c1nc2nc(C(=O)O)nc(N[C@H](C)C3CC3)c2n1Cc1ccc(Cl)cc1)CCOC` [Example 4.15, (R)-8-(2-(3-(bis(2-methoxyethyl)amino)propoxy)-5-methylphenyl)-7-(4-chlorobenzyl)-6-((1-cyclopropylethyl)amino)-7H-purine-2-carboxylic acid] registered an IC50 of 667 nM.

The compound `Cc1ccc(OCCCN2CCOCC2)c(-c2nc3nc(C(=O)O)nc(N[C@H](C)C4CC4)c3n2Cc2ccc(Cl)cc2)c1` [Example 4.14, (R)-7-(4-chlorobenzyl)-6-((1-cyclopropylethyl)amino)-8-(5-methyl-2-(3-morpholinopropoxy)phenyl)-7H-purine-2-carboxylic acid] returned an IC50 of 212 nM.

Still in this assay, the particulars now being: Table 5.
For `Cc1cccc(-c2nc3nc(C(=O)O)nc(N[C@H](C)C4CCC4)c3n2Cc2ccc(OC(F)F)cc2)c1` [Example 5.13, 6-{[(1R)-1-cyclobutylethyl]amino}-7-[4-(difluoromethoxy)benzyl]-8-(3-methylphenyl)-7H-purine-2-carboxylic acid], the IC50 turned out to be 128 nM.

`CCOc1ccc(C(F)(F)F)cc1Cn1c(-c2cccc(C)c2)nc2nc(C(=O)O)nc(N[C@H](C)C3CC3)c21` [Example 5.5, 6-{[(1R)-1-cyclopropylethyl]amino}-7-(2-ethoxy-5-(trifluoromethyl)benzyl)-8-(3-methylphenyl)-7H-purine-2-carboxylic acid] had an IC50 of 2740 nM.

On to `Cc1cccc(-c2nc3nc(C(=O)O)nc(NCC4CC4)c3n2C(C)c2ccc(Cl)cc2)c1` (stereo not drawn) [Example 5.2, 7-(1-(4-chlorophenyl)ethyl)-6-((cyclopropylmethyl)amino)-8-(m-tolyl)-7H-purine-2-carboxylic acid], for which the IC50 came to 984 nM.

Regarding `Cc1cccc(-c2nc3nc(C(=O)O)nc(N[C@H](C)C4CCC4)c3n2Cc2ccc(Cl)cc2Cl)c1` [Example 5.11, 6-{[(1R)-1-cyclobutylethyl]amino}-7-(2,4-dichlorobenzyl)-8-(3-methylphenyl)-7H-purine-2-carboxylic acid], the IC50 worked out at 259 nM.

In turn, `Cc1ccc(Cn2c(-c3cccc(C)c3)nc3nc(C(=O)O)nc(N[C@H](C)C4CC4)c32)cc1` [Example 5.21, 6-{[(1R)-1-cyclopropylethyl]amino}-7-(4-methylbenzyl)-8-(3-methylphenyl)-7H-purine-2-carboxylic acid] gave an IC50 of 1200 nM.
